Laboratory results published in paper PMC9674958 (Proceedings of the National Academy of Sciences of the …, 2022).

Assays:
[1] = tested on: tyrosinase (TYR) of Q. spinosa; experiment: absorbance at […] nm, Lineweaver-Burk fit; type: biochemical, Quasipaa spinosa; conditions: 15 uM CuSO4, 50 mM Na2HPO4, pH 6.2; L-DOPA 0.625-10 mM
[2] = tested on: tyrosinase (TYR) of N. parkeri; experiment: absorbance at […] nm, Lineweaver-Burk fit; type: biochemical, Nanorana parkeri; conditions: 15 uM CuSO4, 50 mM Na2HPO4, pH 6.2; L-DOPA 0.625-10 mM

N[C@@H](Cc1ccc(O)c(O)c1)C(=O)O [L-DOPA]
Km [1]: 0.1663 ± 0.117 mM/L
Km [2]: 0.130 ± 0.073 mM/L
